Test results reported in patent publication US20120122727A1, “IN VITRO METHOD FOR PREDICTING WHETHER A COMPOUND IS GENOTOXIC IN VIVO” (priority 2009, published 2012).

Tested on: primary mouse hepatocytes
Assay: Gene expression (Affymetrix Mouse Genome 430 2.0) in primary mouse hepatocytes, true vs false GTX, 24 h and 48 h
Settings: 48 h; log2, corrected for vehicle control

c1ccc2c(c1)cc1ccc3cccc4ccc2c1c34 [BaP, Benzo(a)pyrene]
Gene expression AK005731 average: 3.0498 | Gene expression AK007854 average: 1.6125 | Gene expression AK010447 average: −1.207 | Gene expression AK010738 average: 0.9112 | Gene expression AK014608 average: 1.245 | Gene expression AK017734 average: 0.7529 | Gene expression AK018383 average: 1.273 | Gene expression AK019979 average: −1.0966 | Gene expression AV095209 average: −0.7654 | Gene expression AV141095 average: −1.4056 | Gene expression AV173869 average: −1.924 | Gene expression AV216768 average: −1.447 | Gene expression AV219418 average: 1.558 | Gene expression AV221299 average: −1.169 | Gene expression AV246296 average: 1.1524 | Gene expression AV251625 average: 1.731 | Gene expression AV254764 average: 1.48 | Gene expression AV327248 average: 2.067 | Gene expression BB009155 average: 0.784 | Gene expression BB027848 average: 0.4738 | Gene expression BB043558 average: 1.692 | Gene expression BB046347 average: 0.7766 | Gene expression BB140436 average: −0.4572 | Gene expression BB204486 average: −1.5693 | Gene expression BB223872 average: 1.1634 | Gene expression BB246912 average: −1.54 | Gene expression BB275142 average: 1.0559 | Gene expression BB458460 average: −1.384 | Gene expression BB463610 average: 1.672 | Gene expression BB730977 average: 0.4218 | Gene expression BB743970 average: 1.51 | Gene expression BB770528 average: 0.7877 | Gene expression BB781615 average: 0.9271 | Gene expression BC003284 average: 0.7313 | Gene expression BC004827 average: −1.186 | Gene expression BC005552 average: −0.2121 | Gene expression BC006713 average: 0.4721 | Gene expression BC010318 average: −0.5529 | Gene expression BC012247 average: 1.477 | Gene expression BC012955 average: −0.9445 | Gene expression BC013893 average: 1.04 | Gene expression BC017615 average: −2.234 | Gene expression BC019379 average: −1.9807 | Gene expression BC019882 average: 2.16 | Gene expression BC021352 average: 0.7052 | Gene expression BC022148 average: 1.324 | Gene expression BC025169 average: −0.5114 | Gene expression BC026131 average: −1.045 | Gene expression BC027026 average: 1.379 | Gene expression BC027121 average: 1.345 | Gene expression BC027185 average: 0.7081 | Gene expression BE956581 average: 1.451 | Gene expression BF719766 average: 0.9507 | Gene expression BG065754 average: 0.9746 | Gene expression BG066491 average: −2.098 | Gene expression BG076151 average: 0.7599 | Gene expression BG076333 average: −0.4091 | Gene expression BG797099 average: 1.8809 | Gene expression BG967046 average: 0.5936 | Gene expression BI651416 average: 1.9573 | Gene expression BI966443 average: 1.3186 | Gene expression BM198879 average: 0.8089 | Gene expression BM200015 average: 1.0174 | Gene expression BM230508 average: 1.158 | Gene expression BM936480 average: 3.0213 | Gene expression BQ174991 average: −1.408 | Gene expression L21027 average: −1.779 | Gene expression NM_007556 average: −1.089 | Gene expression NM_007980 average: 1.753 | Gene expression NM_007987 average: 1.353 | Gene expression NM_008522 average: 2.9351 | Gene expression NM_008935 average: −1.4799 | Gene expression NM_009897 average: 1.182 | Gene expression NM_011075 average: 1.198 | Gene expression NM_011176 average: 1.4287 | Gene expression NM_011316 average: 0.8735 | Gene expression NM_012006 average: 2.867 | Gene expression NM_013642 average: −1.442 | Gene expression NM_013738 average: 0.9012 | Gene expression NM_013929 average: 1.062 | Gene expression NM_018881 average: 3.369 | Gene expression NM_019738 average: −2.586 | Gene expression NM_030697 average: 1.3687 | Gene expression NM_053122 average: −1.795 | Gene expression NM_134147 average: −1.2396 | Gene expression NM_134188 average: 0.2884 | Gene expression X62701 average: −1.2338
